± gives the standard deviation of the averaged measurements.
Tests used:
[1] = compound: CCn1c(C(=O)N(C2CC2)C2CC2)cc2c3c(ncn3C)c(Nc3cc(C)n(C)n3)nc21; assay: surviving fraction relative to DMSO-only wells; higher = less growth inhibition; settings: exposure time: 5 days
Procedure, shortened: (§1)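 Continuous five-day exposure to inhibitors at 0.5, 1, 5, 10, 50, 100, 500 and 1000 nM started 24 hours after log-phase tumour cell lines were seeded at 250–500 cells per well in 384-well plates. Luminescence was read after 10 minutes at room temperature. Viability is given as surviving fraction, meaning CellTiter-Glo luminescence normalised to the median of DMSO-only wells.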

SORAFENIB = compound: CNC(=O)c1cc(Oc2ccc(NC(=O)Nc3ccc(Cl)c(C(F)(F)F)c3)cc2)ccn1 [SORAFENIB]; assay: as above; settings: exposure time: 5 days
Procedure, shortened: as §1

Row | Test System | surviving fraction ([1]; 0.5 nM) | surviving fraction ([1]; 1 nM) | surviving fraction ([1]; 5 nM) | surviving fraction ([1]; 10 nM) | surviving fraction ([1]; 50 nM) | surviving fraction ([1]; 100 nM) | surviving fraction ([1]; 500 nM) | surviving fraction ([1]; 1000 nM) | surviving fraction (SORAFENIB; 0.5 nM) | surviving fraction (SORAFENIB; 1 nM) | surviving fraction (SORAFENIB; 5 nM) | surviving fraction (SORAFENIB; 10 nM) | surviving fraction (SORAFENIB; 50 nM) | surviving fraction (SORAFENIB; 100 nM) | surviving fraction (SORAFENIB; 500 nM) | surviving fraction (SORAFENIB; 1000 nM)
1 | MFM223 BREAST | 1.07 ± 0.076 | 1.02 ± 0.056 | 1.03 ± 0.047 | 1.04 ± 0.053 | 1.1 ± 0.087 | 1.18 ± 0.075 | 1.17 ± 0.092 | 1.15 ± 0.089 | 1.18 ± 0.021 | 1.16 ± 0.048 | 1.23 ± 0.08 | 1.15 ± 0.047 | 1.23 ± 0.13 | 1.14 ± 0.081 | 1.06 ± 0.13 | 0.742 ± 0.08
2 | MG63 BONE | 0.9877 ± 0.0096 | 0.944 ± 0.016 | 0.992 ± 0.02 | 0.981 ± 0.031 | 1.01 ± 0.011 | 0.98 ± 0.015 | 0.928 ± 0.013 | 0.891 ± 0.021 | 0.996 ± 0.025 | 1 ± 0.018 | 1.044 ± 0.01 | 1.015 ± 0.0067 | 1.13 ± 0.014 | 1.13 ± 0.031 | 1.1 ± 0.025 | 1.12 ± 0.012
3 | MHM BONE | 0.979 ± 0.035 | 0.964 ± 0.015 | 1 ± 0.022 | 0.995 ± 0.013 | 1 ± 0.019 | 0.999 ± 0.0044 | 0.976 ± 0.024 | 0.949 ± 0.022 | 0.977 ± 0.025 | 1.01 ± 0.024 |  | 1.06 ± 0.051 | 1.071 ± 0.0061 | 1.08 ± 0.024 | 1.1 ± 0.034 | 
4 | NCIH441 LUNG | 0.92 ± 0.068 | 0.97 ± 0.033 | 1.03 ± 0.033 | 1.01 ± 0.13 | 0.952 ± 0.063 | 1.04 ± 0.037 | 1.06 ± 0.068 | 1.04 ± 0.017 | 1.12 ± 0.014 | 1.07 ± 0.028 | 1.12 ± 0.12 | 0.967 ± 0.042 | 0.992 ± 0.023 | 0.99 ± 0.12 | 0.927 ± 0.04 | 0.834 ± 0.016
5 | NOS1 BONE | 1.09 ± 0.11 | 1.13 ± 0.12 | 1.14 ± 0.035 | 1.04 ± 0.1 | 1.12 ± 0.15 | 1.13 ± 0.088 | 1.06 ± 0.2 | 0.884 ± 0.16 | 1.04 ± 0.11 |  | 1.12 ± 0.17 | 0.997 ± 0.058 | 0.995 ± 0.053 | 0.874 ± 0.056 | 0.684 ± 0.0075 | 0.613 ± 0.062
6 | NY BONE | 0.934 ± 0.0062 | 0.932 ± 0.038 | 1.002 ± 0.01 | 0.975 ± 0.026 | 1.02 ± 0.022 | 0.99 ± 0.013 | 0.922 ± 0.025 | 0.915 ± 0.018 | 1.01 ± 0.019 | 0.975 ± 0.033 | 1.04 ± 0.035 | 1.01 ± 0.027 | 1.08 ± 0.036 | 1.07 ± 0.044 | 1.02 ± 0.013 | 1.034 ± 0.0083
7 | OS25HAL BONE | 0.9497 ± 0.005 | 0.953 ± 0.018 | 0.945 ± 0.015 | 0.952 ± 0.022 | 1.04 ± 0.024 | 1.045 ± 0.0067 | 1.018 ± 0.0064 | 1.01 ± 0.011 | 0.99 ± 0.023 | 0.984 ± 0.0092 | 1.03 ± 0.035 |  | 1.06 ± 0.018 | 1.01 ± 0.049 | 0.855 ± 0.077 | 0.645 ± 0.056
8 | OSHN BONE | 1.03 ± 0.026 | 1.02 ± 0.016 | 1.03 ± 0.017 | 1.01 ± 0.025 | 1.05 ± 0.041 | 1.03 ± 0.04 | 1.03 ± 0.033 | 0.999 ± 0.023 | 1.06 ± 0.024 | 1.047 ± 0.0099 | 1.07 ± 0.018 | 1.05 ± 0.015 | 1.09 ± 0.037 | 1.06 ± 0.014 | 1.08 ± 0.025 | 1.05 ± 0.013
9 | PCI30 HEADNECK | 0.872 ± 0.024 | 0.74 ± 0.04 | 0.98 ± 0.05 | 1 ± 0.073 | 0.991 ± 0.065 | 1.01 ± 0.026 | 0.964 ± 0.013 | 0.895 ± 0.049 | 1.04 ± 0.038 |  | 1.02 ± 0.045 | 1.04 ± 0.06 | 1.06 ± 0.098 | 1.11 ± 0.096 | 1.11 ± 0.059 | 1.12 ± 0.013
10 | RDES SOFT TISSUE | 1.24 ± 0.11 | 1.2 ± 0.16 | 1.33 ± 0.071 | 1.27 ± 0.024 | 1.26 ± 0.12 | 1.19 ± 0.13 | 1.22 ± 0.13 | 1.39 ± 0.12 | 1.24 ± 0.085 | 1.12 ± 0.098 | 1.18 ± 0.1 | 0.918 ± 0.1 | 1.15 ± 0.058 | 1.24 ± 0.066 | 1.18 ± 0.13 | 1.09 ± 0.1
11 | S68 BREAST | 1.1 ± 0.39 | 0.683 ± 0.17 | 0.816 ± 0.16 | 0.974 ± 0.13 | 1.35 ± 0.11 | 0.945 ± 0.054 | 0.823 ± 0.016 | 0.817 ± 0.11 |  | 0.963 ± 0.22 | 1.06 ± 0.083 | 1.13 ± 0.18 | 1.29 ± 0.099 | 1.12 ± 0.27 | 1.02 ± 0.079 | 0.895 ± 0.32
12 | SAOS2 BONE | 1 ± 0.061 | 0.97 ± 0.011 | 1.06 ± 0.12 | 0.96 ± 0.031 | 1.12 ± 0.02 | 1.05 ± 0.069 | 1.05 ± 0.072 | 1.04 ± 0.091 | 0.935 ± 0.028 | 1.019 ± 0.0098 | 1.072 ± 0.0081 | 1.04 ± 0.064 | 1.17 ± 0.017 | 1.237 ± 0.0023 | 1.196 ± 0.01 | 1.07 ± 0.079
13 | SCC003 HEADNECK | 0.92 ± 0.15 | 0.937 ± 0.047 | 1.02 ± 0.095 | 0.968 ± 0.015 | 1.11 ± 0.099 | 1.12 ± 0.12 | 0.917 ± 0.12 | 0.928 ± 0.045 | 0.898 ± 0.11 | 1.05 ± 0.12 |  |  | 1.12 ± 0.18 | 1.11 ± 0.081 | 1.24 ± 0.097 | 
14 | SCC36 HEADNECK | 0.87 ± 0.045 | 1.07 ± 0.1 | 1.12 ± 0.077 | 1.11 ± 0.044 | 1.12 ± 0.073 | 1.04 ± 0.032 | 1.07 ± 0.093 | 0.962 ± 0.057 |  | 1.02 ± 0.064 | 1.15 ± 0.11 | 1.18 ± 0.018 | 1.18 ± 0.16 | 1.17 ± 0.056 | 1.2 ± 0.049 | 1.18 ± 0.065
15 | SCC47 HEADNECK | 0.86 ± 0.014 | 0.823 ± 0.037 | 0.995 ± 0.094 | 0.968 ± 0.1 | 0.99 ± 0.063 | 1.06 ± 0.072 | 0.88 ± 0.016 | 0.916 ± 0.12 | 1.04 ± 0.067 | 0.998 ± 0.071 | 1.08 ± 0.029 | 0.974 ± 0.067 | 1 ± 0.053 | 1.01 ± 0.068 | 0.907 ± 0.065 | 0.825 ± 0.028
16 | SCC90 HEADNECK | 0.826 ± 0.041 | 0.929 ± 0.046 | 1.05 ± 0.14 | 0.964 ± 0.091 | 0.976 ± 0.04 | 1.01 ± 0.13 | 0.875 ± 0.093 | 0.922 ± 0.061 | 1.16 ± 0.083 | 1.23 ± 0.13 | 1.37 ± 0.12 | 1.3 ± 0.097 |  | 0.797 ± 0.076 | 1.01 ± 0.083 | 1.12 ± 0.069
17 | SG27 HEADNECK | 0.996 ± 0.14 | 0.974 ± 0.089 | 1.01 ± 0.067 | 1.01 ± 0.056 | 1.02 ± 0.077 | 1.03 ± 0.11 | 0.915 ± 0.074 | 0.931 ± 0.17 | 1.04 ± 0.056 | 1.01 ± 0.059 | 1.18 ± 0.041 | 1.13 ± 0.074 | 1.03 ± 0.04 | 1.22 ± 0.1 | 1.27 ± 0.045 | 1.3 ± 0.051
18 | SG28 HEADNECK | 1.06 ± 0.11 | 1.05 ± 0.038 | 1.02 ± 0.025 | 1.02 ± 0.046 | 1.13 ± 0.043 | 0.954 ± 0.096 | 0.951 ± 0.081 | 0.95 ± 0.093 | 1.17 ± 0.13 |  | 1.18 ± 0.1 | 1.22 ± 0.18 | 1.21 ± 0.066 | 1.27 ± 0.1 | 1.44 ± 0.19 | 1.32 ± 0.14
